US20090131356A1, “miR-15, miR-26, miR-31, miR-145, miR-147, miR-188, miR-215, miR-216, miR-331, mmu-miR-292-3P REGULATED GENES AND PATHWAYS AS TARGETS FOR THERAPEUTIC INTERVENTION” (ASURAGEN, INC., priority 2006, published 2009)

Legend:
[1] = test system: Du145 human prostate cancer cells; experiment: Long-term growth curve with repeated electroporation, Du145; type: cell-based; details: 1.6 μM miRNA electroporated, repeated on days 7 and 14, day 20
Method: The inventors assessed the therapeutic effect of hsa-miR-15a for prostate cancer by using the Du145 human prostate cancer cell line, derived from a brain metastasis (Stone et al., 1978). The inventors conducted growth curve experiments in the presence of miRNA for up to 20 days. Since in vitro transfections of naked interfering RNAs, such as synthetic miRNA, are transient by nature and compromised by the dilution of the miRNA during ongoing cell divisions, miRNA was administered at multiple time points (Bartlett et al., 2006; Bartlett et al., 2007). To accommodate miRNA delivery into a large quantity of cells, the inventors employed the electroporation method for delivery of hsa-miR-15a or negative control miRNA into Du145 human prostate cancer cells. Briefly, 0.5×10^6 Du145 cells were electroporated with 1.6 μM hsa-miR-15a or negative control using the BioRad Gene Pulser Xcell™ instrument (BioRad Laboratories Inc., Hercules, Calif., USA), seeded and propagated in regular growth medium. Experiments were carried out in triplicates. When the control cells reached confluence (days 7 and 14), cells were harvested, counted and electroporated again with the respective miRNAs. To ensure similar treatment of both conditions as well as to accommodate exponential growth, the cell numbers used for the second and third electroporation were titrated down to the lowest count. The population doubling was calculated from these electroporation events using the formula PD=ln(Nf/N0)/ln2 and adjusting for the fact that approximately 72% of newly seeded cells adhere to the plate. Cell counts were extrapolated and plotted on a linear scale (FIG. 10). Arrows represent electroporation days. Standard deviations are included in the graphs.
To evaluate the therapeutic activity of hsa-miR-147 over an extended period of time, the inventors conducted growth curve experiments in the presence of miRNA for up to 21 days. Since in vitro transfections of naked interfering RNAs, such as synthetic miRNA, are transient by nature and compromised by the dilution of the oligo during ongoing cell divisions, miRNA was administered at multiple time points (Bartlett et al., 2006; Bartlett et al., 2007). To accommodate miRNA delivery into a large quantity of cells, the inventors employed the electroporation method to delivery hsa-miR-147 or negative control miRNA into PC3 and Du145 human prostate cancer cells. […] When the control cells reached confluence (days 7 and 14), cells were harvested, counted and electroporated again with the respective miRNAs. […] The population doubling was calculated from these electroporation events using the formula PD=ln(Nf/N0)/ln2 and adjusting for the fact that approximately 72% of newly seeded cells adhere to the plate. […]

[2] = test system: Du145 cells; experiment: Alamar Blue proliferation assay, Du145; type: cell-based, human; details: 30 nM, normalized to negative control miRNA (100% proliferation)
From the text: The inventors assessed the therapeutic effect of hsa-miR-147 for prostate cancer by using 4 individual human prostate cancer cell lines. To measure cellular proliferation of prostate cancer cells, the following prostate cancer cell lines were used: PPC-1 and PC3, derived from a bone metastasis; Du145, derived from a brain metastasis; RWPE2, derived from prostate cells immortalized by human papillomavirus 18 and transformed by the K-RAS oncogene (Bello et al., 1997; Stone et al., 1978; Brothman et al., 1991). PC3, PPC-1, and Du145 cells lack expression of the prostate-specific antigen (PSA) and are independent of androgen receptor (AR) signaling. In contrast, RWPE2 cells test positive for PSA and AR.
PPC-1, Du145 and RWPE2 cells were transfected with synthetic hsa-miR-147 (Pre-miR™-hsa-miR-147, Ambion cat. no. AM17100) or negative control miRNA (NC; Pre-miR™ microRNA Precursor Molecule-Negative Control #2; Ambion cat. no. AM17111) in a 96-well format using a lipid-based transfection reagent. […] Proliferation was assessed 4-7 days post-transfection using Alamar Blue™ (Invitrogen) following the manufacturer's instructions. […] Fluorescent light units (FLU) were measured after 3 hours, normalized to the control, and plotted as percent change in proliferation. […]

hsa-miR-147: Synthetic pre-miR-147 (Ambion AM17100; Dharmacon in vivo); mature sequence GUGUGUGGAAAUGCUUCUGC, MIMAT0000251, SEQ ID NO:114 (synthetic pre-miR (Ambion/Dharmacon), chemistry not given here; listed as Homo sapiens)
cells relative to cells electroporated with negative control miRNA [1]: 2.90%
inhibition of Du145 cell growth ([1]; relative to proliferation of control cells (100%)): 97.1%
% proliferation [2]: 61.50%
